How the values were obtained:
[1] = molecular target: T1, prostacyclin receptor (IPR) (Homo sapiens, UniProt P43119); assay: cAMP accumulation (LANCE) in human lung fibroblasts, endogenous receptor; partial agonist; format: cell-based
T1 construct: gene PTGIR

[2] = molecular target: T1, prostacyclin receptor (IPR); assay: cAMP accumulation (LANCE) in human lung fibroblasts, endogenous receptor; about […] blocked by IPR antagonist RO-1138452; format: cell-based

T1 sequence (P43119 1-383): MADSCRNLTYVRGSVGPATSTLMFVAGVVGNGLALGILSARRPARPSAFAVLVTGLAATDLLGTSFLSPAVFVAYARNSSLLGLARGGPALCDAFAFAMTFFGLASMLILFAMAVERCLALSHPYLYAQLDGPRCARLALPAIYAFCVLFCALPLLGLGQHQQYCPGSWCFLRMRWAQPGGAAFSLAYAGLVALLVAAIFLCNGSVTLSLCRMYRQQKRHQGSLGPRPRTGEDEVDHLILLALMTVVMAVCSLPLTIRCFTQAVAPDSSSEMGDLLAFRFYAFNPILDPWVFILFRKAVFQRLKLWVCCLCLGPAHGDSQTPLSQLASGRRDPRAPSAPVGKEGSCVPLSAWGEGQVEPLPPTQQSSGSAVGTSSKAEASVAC

SMILES	EC50 [1] [nM]	EC50 [2] [nM]
CC(C)N(CCCCOCC(=O)O)c1cnc(-c2ccccc2)c(-c2ccccc2)n1 [MRE-269, {4-[(5,6-Diphenylpyrazin-2-yl)(isopropyl)amino]butoxy}acetic Acid]	200	
CCCCC[C@H](O)CC[C@@H]1[C@H]2Cc3cccc(OCC(=O)O)c3C[C@H]2C[C@H]1O [treprostinil]		64

Reference: publication PMC8116805, “Inhibition of the Proliferation of Human Lung Fibroblasts by Prostacyclin Receptor Agonists is Linked to a Sustained cAMP Signal in the Nucleus” (Frontiers in Pharmacology, 2021)
